Measurements reported in EP0205068B1, “Lysergic-acid amides, process for their preparation and medicaments containing them” (ARZNEIMITTELWERK DRESDEN GmbH, priority 1985, dated 1986).
“And” between values parts separate entries of the source, which are not always exact repeats. Identical values can stand only once.

Assays:
Arteria femoralis = assay: Contraction of isolated human vessel preparations, artery; design: species or system menschlichen
From the text: (§1) 6. Untersuchungen an isolierten menschlichen Gefäßpräparaten
(§2) (Vena und Arteria femoralis)
(§3) Glusa, E. und F. Markwardt, Pharmacolgy 24 (1982) 287 sowie Naunyn-Schmiedebergs-Arch. Pharmacol. 323 (1983) 101

Vena femoralis = assay: Contraction of isolated human vessel preparations, vein; design: species or system menschlichen
From the text: as §1, §2, §3

Ratten = assay: SFT test (spinal cord fixation time); type: in vivo
From the text: 4. SFT-Test (Spinal cord fixation time)
C.Giurgea und F.Mouravieff-Lesmisse Arch.Intern.Pharmacodyn.191 (1971) 279
Es ist die Anzahl der Tiere mit persistierender Asymmetrie zur Gesamtzahl der eingesetzten Ratten aufgeführt.

Maus = assay: Porsolt swim test (immobility duration); type: in vivo
[1] = test system: transcallosal ausgelöster Potentiale; assay: Influence on transcallosally evoked potentials in awake rats fixed in a stereotactic apparatus; type: in vivo, weiblichen Wistarratten; conditions: 1 mg/kg i.p.
From the text: 3. Beeinflussung transcallosal ausgelöster Potentiale
Methodik in Anlehnung an C.Giurgea und F.Moyersoons, Arch.Int.Pharmacodyn.199,(1972) 67
Die Untersuchung wurde an wachen, im stereotaktischen Apparat fixierten weiblichen Wistarratten durchgeführt.

[2] = test system: vas deferens des Meerschweinchens; assay: Noradrenaline antagonism on isolated vas deferens; conditions: Cavia porcellus, read-out: Hemmung (x̄ ± sx̄) in %
From the text: 5. Noradrenalin-Antagonismus
Noradrenalin-Antagonismus am vas deferens des Meerschweinchens

Row | SMILES | Immobilitätsdauer (sec) x̄ ± sx̄ (Maus; 1 mg/kg i.p.) | Amplitudenbeeinflussung b.max.Reizintensität neg.Welle ([1]; 60') | Amplitudenbeeinflussung b.max.Reizintensität pos.Welle ([1]; 60') | Amplitudenbeeinflussung b.mittl.Reizintensität neg.Welle ([1]; 60') | Amplitudenbeeinflussung b.mittl.Reizintensität pos.Welle ([1]; 60') | Amplitudenbeeinflussung b.max.Reizintensität neg.Welle ([1]; 120') | Amplitudenbeeinflussung b.max.Reizintensität pos.Welle ([1]; 120') | Amplitudenbeeinflussung b.mittl.Reizintensität neg.Welle ([1]; 120') | Amplitudenbeeinflussung b.mittl.Reizintensität pos.Welle ([1]; 120') | Amplitudenbeeinflussung b.max.Reizintensität neg.Welle ([1]; 180') | Amplitudenbeeinflussung b.max.Reizintensität pos.Welle ([1]; 180') | Amplitudenbeeinflussung b.mittl.Reizintensität neg.Welle ([1]; 180') | Amplitudenbeeinflussung b.mittl.Reizintensität pos.Welle ([1]; 180') | Amplitudenbeeinflussung b.max.Reizintensität neg.Welle ([1]; VW = Vorwert (pre-dose value)) | Amplitudenbeeinflussung b.max.Reizintensität pos.Welle ([1]; VW = Vorwert (pre-dose value)) | Amplitudenbeeinflussung b.mittl.Reizintensität neg.Welle ([1]; VW = Vorwert (pre-dose value)) | Amplitudenbeeinflussung b.mittl.Reizintensität pos.Welle ([1]; VW = Vorwert (pre-dose value)) | Immobilitätsdauer (sec) x̄ ± sx̄ (Maus; 3 mg/kg p.o.) | also measured
1 | CN1C[C@H](C(=O)N[C@]2(C)O[C@@]3(O)[C@@H]4CCCN4C(=O)[C@H](Cc4ccccc4)N3C2=O)C[C@@H]2c3cccc4[nH]cc(c34)C[C@H]21 [Dihydro-ergo-tamin] | – | – | – | – | – | – | – | – | – | – | – | – | – | – | – | – | – | – | %-Kontraktion bezogen auf NA (Arteria femoralis): 8,8 ± 8%; %-Kontraktion bezogen auf NA (Vena femoralis): 61 ± 24% and 52 ± 18%
2 | CO[C@]12C[C@@H](COC(=O)c3cncc(Br)c3)CN(C)[C@@H]1Cc1cn(C)c3cccc2c13 [Nicergolin, 10a-Methoxy-1,6-dimethyl-ergolin-8ß-methanol-(5'-bromnicotinat), reference compound] | 196,7 ± 5,6 sec | 0,41±0,03 µV | 0,40±0,02 µV | 0,24±0,02 µV | 0,24±0,01 µV | 0,38±0,02 µV | 0,36±0,02 µV | 0,23±0,02 µV | 0,22±0,02 µV | 0,39±0,04 µV | 0,39±0,04 µV | 0,21±0,01 µV | 0,19±0,02 µV | 0,39±0,02 µV | 0,39±0,02 µV | 0,23±0,02 µV | 0,23±0,02 µV | – | Anzahl der Tiere mit persistierender Asymmetrie zur Gesamtzahl der eingesetzten Ratten (Ratten; Dosis ip. 1 mg/kg): 2/10; Anzahl der Tiere mit persistierender Asymmetrie zur Gesamtzahl der eingesetzten Ratten (Ratten; Dosis ip. 3 mg/kg): 4/6
3 | CCC(=O)OCCN(CCOC(=O)CC)C(=O)[C@@H]1C[C@@H]2c3cccc4c3c(cn4C)C[C@H]2N(C)C1 [1 e, 1-Methyl-9,10-dihydrolysergsäure-bis-(ß-propionylethyl)-amid] | – | – | – | – | – | – | – | – | – | – | – | – | – | – | – | – | – | 210,0 ± 3,8 sec | –
4 | CC(=O)OCCN(CCOC(C)=O)C(=O)[C@@H]1C[C@@H]2c3cccc4[nH]cc(c34)C[C@H]2N(C)C1 [1 a, 9,10-Dihydrolysergsäure-bis-(β-acetoxyethyl)amid] | 202,6 ± 1,8 sec | 0,40±0,03 µV | 0,42±0,03 µV | 0,23±0,03 µV | *0,26±0,03 µV | *0,40±0,02 µV | 0,41±0,02 µV | *0,25±0,03 µV | *0,27±0,03 µV | 0,39±0,02 µV | 0,42±0,02 µV | 0,23±0,03 µV | *0,25±0,02 µV | 0,34±0,03 µV | 0,38±0,03 µV | 0,18±0,02 µV | 0,19±0,02 µV | – | inhibition at 10 µM ([2]; Konzentration 10^-5 mol/l): 60.7%; inhibition at 1 µM ([2]; Konzentration 10^-6 mol/l): 14.7%; inhibition at 0.1 µM ([2]; Konzentration 10^-7 mol/l): 4.4%; Anzahl der Tiere mit persistierender Asymmetrie zur Gesamtzahl der eingesetzten Ratten (Ratten; Dosis ip. 2 mg/kg): 5/10; pharmakologisch wertvolle Nebenwirkungen (Vena femoralis; statement in words): Tonisierung der Venen
5 | CC(=O)OCCN(CCOC(C)=O)C(=O)[C@@H]1C[C@@H]2c3cccc4c3c(cn4Cc3cccc(F)c3)C[C@H]2N(C)C1 [1 l, 1-(3'-Fluorbenzyl)-9,10-dihydrolysergsäure-bis-(ß-acetoxyethyl)-amid] | 199,4 ± 2,3 sec | – | – | – | – | – | – | – | – | – | – | – | – | – | – | – | – | – | –
6 | CC(=O)OCCN(CCOC(C)=O)C(=O)[C@@H]1C[C@@H]2c3cccc4c3c(cn4C)C[C@H]2N(C)C1 [1 c, 1-Methyl-9,10-dihydrolysergsäure-bis-(ß-acetoxyethyl)-amid] | – | – | – | – | – | – | – | – | – | – | – | – | – | – | – | – | – | 203,6 ± 5,9 sec | –
